Reference: PubChem BioAssay (NCI)
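In this assay, cells in 96-well plates receive the compound at five concentrations for 48 hours. Endpoints are linearly interpolated between the surrounding concentrations. Here, GI50 denotes the concentration required for 50% inhibition of growth. TGI marks complete inhibition of growth.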

What was measured:
Assay in all cases: NCI anticancer screen, dose series, 48 h
[1] = tested on: HCC-2998 colon
[2] = tested on: BT-549 breast
[3] = tested on: IGROV1 ovarian
[4] = tested on: SF-539 CNS
[5] = tested on: HT29 colon
[6] = tested on: SNB-75 CNS
[7] = tested on: SW-620 colon
[8] = tested on: MCF7 breast
[9] = tested on: SR leukemia
[10] = tested on: NCI-H522 lung
[11] = tested on: DU-145 prostate
[12] = tested on: NCI-H460 lung
[13] = tested on: HOP-92 NSCLC
[14] = tested on: SK-OV-3 ovarian
[15] = tested on: SK-MEL-5 melanoma
[16] = tested on: K-562 leukemia
[17] = tested on: SK-MEL-28 melanoma
[18] = tested on: OVCAR-5 ovarian
[19] = tested on: MDA-MB-435
[20] = tested on: SF-295 CNS
[21] = tested on: LOX IMVI melanoma
[22] = tested on: MDA-MB-468 breast
[23] = tested on: HL-60(TB) leukemia
[24] = tested on: HS 578T breast
[25] = tested on: MDA-MB-231 breast
[26] = tested on: UACC-257 melanoma
[27] = tested on: SN12C renal
[28] = tested on: SF-268 CNS
[29] = tested on: OVCAR-3 ovarian
[30] = tested on: CCRF-CEM leukemia
[31] = tested on: MALME-3M melanoma
[32] = tested on: EKVX NSCLC
[33] = tested on: SNB-19 CNS
[34] = tested on: UO-31 renal
[35] = tested on: NCI/ADR-RES ovarian
[36] = tested on: CAKI-1 renal
[37] = tested on: TK-10 renal
[38] = tested on: UACC-62 melanoma
[39] = tested on: NCI-H23 lung
[40] = tested on: SK-MEL-2 melanoma
[41] = tested on: ACHN renal
[42] = tested on: HCT-15 colon
[43] = tested on: A498 renal
[44] = tested on: MOLT-4 leukemia
[45] = tested on: RXF 393 renal
[46] = tested on: HOP-62 NSCLC
[47] = tested on: M14 melanoma
[48] = tested on: NCI-H226 lung
[49] = tested on: PC-3 prostate
[50] = tested on: 786-0 renal
[51] = tested on: T-47D breast
[52] = tested on: OVCAR-8 ovarian
[53] = tested on: KM12 colon
[54] = tested on: COLO 205 colon
[55] = tested on: HCT-116 colon
[56] = tested on: A549 NSCLC
[57] = tested on: U251 CNS
[58] = tested on: OVCAR-4 ovarian

With CC(=O)Nc1ccc(-c2cn(-c3cccc(C(=O)Nc4cc(CN5CCOCC5)cc(C(F)(F)F)c4)c3)nn2)cn1 the GI50 [1] was 1.94 µM, the TGI [1] was 3.5 µM and the GI50 [2] was 2.59 µM. For the same compound, the TGI [2] was 4.44 µM, the GI50 [3] was 2.19 µM and the TGI [3] was 5.12 µM. It also gave a GI50 [4] of 1.48 µM, a TGI [4] of 2.82 µM and a GI50 [5] of 2 µM. The TGI [5] was 5.97 µM, the GI50 [6] was 1.78 µM and the TGI [6] was 3.28 µM. The GI50 [7] was 1.94 µM, the TGI [7] was 3.83 µM and the GI50 [8] was 1.72 µM. For the same compound, the TGI [8] was 3.35 µM, the GI50 [9] was over 100 µM and the TGI [9] was over 100 µM. For the same compound, the GI50 [10] was 2.04 µM, the TGI [10] was 4.82 µM and the GI50 [11] was 2.4 µM. The TGI [11] was 5.11 µM, the GI50 [12] was 2.34 µM and the TGI [12] was 5.11 µM. For the same compound, the GI50 [13] was 1.95 µM, the TGI [13] was 4.62 µM and the GI50 [14] was 2.13 µM. For the same compound, the TGI [14] was 3.93 µM, the GI50 [15] was 1.57 µM and the TGI [15] was 2.93 µM. It also gave a GI50 [16] of 0.178 µM, a TGI [16] of over 100 µM and a GI50 [17] of 1.28 µM. For the same compound, the TGI [17] was 2.57 µM, the GI50 [18] was 1.88 µM and the TGI [18] was 4.99 µM. The GI50 [19] was 1.58 µM, the TGI [19] was 3.29 µM and the GI50 [20] was 1.59 µM. It also gave a TGI [20] of 2.94 µM, a GI50 [21] of 1.42 µM and a TGI [21] of 2.8 µM. For the same compound, the GI50 [22] was 1.65 µM, the TGI [22] was 3.1 µM and the GI50 [23] was 1.33 µM. For the same compound, the TGI [23] was 5.47 µM, the GI50 [24] was 1.9 µM and the TGI [24] was 5.04 µM. It also gave a GI50 [25] of 1.23 µM, a TGI [25] of 2.59 µM and a GI50 [26] of 1.63 µM. The TGI [26] was 3.57 µM, the GI50 [27] was 1.65 µM and the TGI [27] was 3.08 µM. It also gave a GI50 [28] of 2.58 µM, a TGI [28] of 5.58 µM and a GI50 [29] of 2.23 µM. It also gave a TGI [29] of 3.99 µM, a GI50 [30] of 3.34 µM and a TGI [30] of over 100 µM. The GI50 [31] was 0.477 µM, the TGI [31] was 1.82 µM and the GI50 [32] was 2.44 µM. For the same compound, the TGI [32] was 6.13 µM, the GI50 [33] was 2.23 µM and the TGI [33] was 4.36 µM. For the same compound, the GI50 [34] was 1.92 µM, the TGI [34] was 3.8 µM and the GI50 [35] was 9.4 µM. For the same compound, the TGI [35] was over 100 µM, the GI50 [36] was 1.91 µM and the TGI [36] was 3.48 µM. For the same compound, the GI50 [37] was 0.433 µM, the TGI [37] was 1.46 µM and the GI50 [38] was 1.29 µM. The TGI [38] was 2.66 µM, the GI50 [39] was 1.63 µM and the TGI [39] was 3.08 µM. For the same compound, the GI50 [40] was 2.13 µM, the TGI [40] was 5.44 µM and the GI50 [41] was 1.77 µM. For the same compound, the TGI [41] was 3.26 µM, the GI50 [42] was 2.03 µM and the TGI [42] was 4.11 µM. It also gave a GI50 [43] of 2.41 µM, a TGI [43] of 4.57 µM and a GI50 [44] of 3.12 µM. For the same compound, the TGI [44] was 16.7 µM, the GI50 [45] was 1.87 µM and the TGI [45] was 3.36 µM.
In the case of C=C(C)[C@@H]1CC[C@]2(COP(=O)(OCC)OCC)CC[C@]3(C)[C@H](CC[C@@H]4[C@@](C)(CCCN)[C@H](C(=C)C)CC[C@]43C)[C@@H]12, the GI50 [1] was 3.7 µM, the TGI [1] was 15.1 µM and the GI50 [2] was 9.88 µM. It also gave a TGI [2] of 22.2 µM, a GI50 [46] of 11.1 µM and a TGI [46] of 24.9 µM. It also gave a GI50 [3] of 11.4 µM, a TGI [3] of 23.7 µM and a GI50 [4] of 10.4 µM. It also gave a TGI [4] of 22.1 µM, a GI50 [5] of 4.03 µM and a TGI [5] of 16.2 µM. For the same compound, the GI50 [6] was 5.01 µM, the TGI [6] was 20 µM and the GI50 [7] was 3.49 µM. The TGI [7] was 15.1 µM, the GI50 [8] was 3.08 µM and the TGI [8] was 12 µM. For the same compound, the GI50 [47] was 5.13 µM, the TGI [47] was 20.4 µM and the GI50 [48] was 5.64 µM. It also gave a TGI [48] of 22 µM, a GI50 [9] of 3.66 µM and a TGI [9] of over 100 µM. For the same compound, the GI50 [10] was 3.01 µM, the TGI [10] was 14.1 µM and the GI50 [11] was 10.9 µM. It also gave a TGI [11] of 23.8 µM, a GI50 [12] of 3.43 µM and a TGI [12] of 14.2 µM. It also gave a GI50 [13] of 2.63 µM, a TGI [13] of 16.2 µM and a GI50 [14] of 13.6 µM. The TGI [14] was 28.7 µM, the GI50 [49] was 2.24 µM and the TGI [49] was 11.4 µM. For the same compound, the GI50 [50] was 5.04 µM, the TGI [50] was 19.9 µM and the GI50 [15] was 3.47 µM. For the same compound, the TGI [15] was 12.9 µM, the GI50 [51] was 3.23 µM and the TGI [51] was 13.9 µM. For the same compound, the GI50 [52] was 6.35 µM, the TGI [52] was 23.1 µM and the GI50 [16] was 3.77 µM. For the same compound, the TGI [16] was over 100 µM, the GI50 [17] was 7.84 µM and the TGI [17] was 20.2 µM. The GI50 [18] was 10.9 µM, the TGI [18] was 22.8 µM and the GI50 [53] was 4.73 µM. For the same compound, the TGI [53] was 17.8 µM, the GI50 [19] was 4.07 µM and the TGI [19] was 17.4 µM. The GI50 [20] was 4.43 µM, the TGI [20] was 17.6 µM and the GI50 [21] was 4.77 µM. It also gave a TGI [21] of 17.2 µM, a GI50 [22] of 2.56 µM and a TGI [22] of 11.3 µM. It also gave a GI50 [23] of 2.87 µM, a TGI [23] of 9.23 µM and a GI50 [24] of 4.67 µM. It also gave a TGI [24] of 24.3 µM, a GI50 [25] of 7.53 µM and a TGI [25] of 20.1 µM. For the same compound, the GI50 [26] was 5.55 µM, the TGI [26] was 18.3 µM and the GI50 [27] was 4.37 µM. For the same compound, the TGI [27] was 16.6 µM, the GI50 [28] was 6.46 µM and the TGI [28] was 23.8 µM. For the same compound, the GI50 [29] was 3 µM, the TGI [29] was 12.7 µM and the GI50 [30] was 2.81 µM. It also gave a TGI [30] of 11.3 µM, a GI50 [54] of 4.56 µM and a TGI [54] of 19.2 µM. The GI50 [31] was 7.16 µM, the TGI [31] was 19.7 µM and the GI50 [32] was 4.88 µM. It also gave a TGI [32] of 18.5 µM, a GI50 [55] of 2.92 µM and a TGI [55] of 13.2 µM. The GI50 [33] was 10 µM, the TGI [33] was 21.7 µM and the GI50 [56] was 4.45 µM. It also gave a TGI [56] of 18.5 µM, a GI50 [34] of 3.58 µM and a TGI [34] of 15.2 µM. The GI50 [57] was 6.51 µM, the TGI [57] was 20.7 µM and the GI50 [35] was 5.45 µM. For the same compound, the TGI [35] was 21.7 µM, the GI50 [36] was 4.12 µM and the TGI [36] was 17.3 µM. The GI50 [37] was 12 µM, the TGI [37] was 25.2 µM and the GI50 [58] was 5.35 µM. It also gave a TGI [58] of 21.8 µM, a GI50 [38] of 4.45 µM and a TGI [38] of 17.2 µM. It also gave a GI50 [39] of 4.73 µM, a TGI [39] of 17.8 µM and a GI50 [40] of 9.64 µM. It also gave a TGI [40] of 22.6 µM, a GI50 [41] of 5.54 µM and a TGI [41] of 18.1 µM. The GI50 [42] was 3.76 µM, the TGI [42] was 13.7 µM and the GI50 [43] was 12.5 µM. For the same compound, the TGI [43] was 25.2 µM, the GI50 [44] was 3.27 µM and the TGI [44] was 16.1 µM. It also gave a GI50 [45] of 3.42 µM and a TGI [45] of 15.2 µM.
